Among the data in ChEMBL document CHEMBL1143120, “Characterization of the two major CYP450 metabolites of ozonide (1,2,4-trioxolane) OZ277” (Bioorg Med Chem Lett, 2008) are IC50 and logD values, retold here.

Converted amounts (≈) assume the structure as drawn. A value given as a limit tells only on which side of the number the result lay.

One data set relates to Plasmodium falciparum. Nature of the data set: Antimalarial activity against Plasmodium falciparum K1. Format: functional, organism-based.
Data set [1] in a line: Distribution coefficient, log D of the compound. The settings on record: octanol/water. Format: physicochemical.

Regarding `CC(C)(N)CNC(=O)C[C@H]1CC[C@]2(CC1)OO[C@]1(O2)C2CC3CC(C2)CC1C3` [OZ277], in the data set on Plasmodium falciparum, the IC50 (usually the concentration needed to halve the response being measured) came out at 0.001 µg/mL (≈ 0.00255 µM). The logD – broadly, the decadic logarithm of the distribution of all forms, ionised or not, between an organic phase and buffer at a given pH – in data set [1] stood at 3.2.

Compound `CC(C)(N)CNC(=O)C[C@H]1CC[C@]2(CC1)OO[C@]1(O2)C2CC3CC1C[C@](O)(C3)C2` gave an IC50 with Plasmodium falciparum of more than 0.1 µg/mL. In data set [1], this compound registered a logD of 1.8.

Consider `CC(C)(N)CNC(=O)C[C@H]1CC[C@]2(CC1)OO[C@]1(O2)C2CC3CC1C[C@@](O)(C3)C2`, for which the IC50 with Plasmodium falciparum was more than 0.1 µg/mL. In addition, the logD in data set [1] was found to be 1.8.
